Legend:
A549 = assay: Neutral red uptake antiproliferative assay, A549; details: for IC50: read-out: IC50 A549, exposure time 72 h, n = 3, 95% CI given; for activity factor IC50(1)/IC50(3a–4d), A549: vs corresponding amine (R)-1 or (S)-1, 72 h
Excerpt: (§1) To assess the impact of conjugating half-sandwich complexes with amines 1 via an imine-pyridine ligand on biological activity, we examined the antiproliferative potential of (R)- and (S)-1 and organometallic conjugates 3a–d and 4a–d in selected human cancer cell lines: alveolar basal epithelial cell adenocarcinoma (A549), colorectal adenocarcinomas (Colo205 and SW620), colorectal carcinoma (HCT116), hepatocellular carcinoma (HepG2), and breast adenocarcinoma (MCF7). The choice of cell lines was dictated by results of previously published clinical trials on ispinesib.[49],[50]
(§2) Cell lines used in this study were purchased from the American Type Culture Collection via LGC Standards. Human normal lung fibroblasts (MRC-5), alveolar basal epithelial cell adenocarcinoma (A549), colorectal adenocarcinoma (Colo205), hepatocellular carcinoma (HepG2), breast adenocarcinoma (MCF7), and colorectal adenocarcinoma (SW620) and its MDR variants[55] were cultured in standard conditions (37 °C, 5% CO2, 100% relative humidity) in high glucose DMEM medium supplemented with GlutaMax, HEPES (ThermoFisher Scientific) and 10% fetal bovine serum (EURx, Poland). All cell lines were tested for Mycoplasma contamination using a MycoProbe mycoplasma detection kit (R&D System).
(§3) For this purpose, neutral red uptake assay was performed. 10^4 of cells were seeded per well of a 96-well plate and left overnight to allow cells to attach to the surface. Then, the cells were exposed to a desired concentration of tested compounds. Stock solutions were prepared in DMSO and were used immediately after preparation. The final concentration of DMSO was constant and nontoxic (0.1% v/v). After 70 h of culture, neutral red was added to the final concentration of 1 mM. After 2 h of incubation with the dye, the medium was aspirated and cells were washed with ice-cold PBS. The dye was released using 100 μL of the solubilizer (1% acetic acid in 50% ethanol) on an orbital shaker (10 min). The absorbance at 540 nm was measured using an EnVision multilabel plate reader (PerkinElmer). […] The IC90 and IC50 parameters were calculated using GraphPad Prism v9 software using the five-parameter nonlinear logistic regression model.

HCT116 = assay: cells; details: for IC50: read-out: IC50 HCT116, exposure time 72 h, n = 3, 95% CI given; for activity factor IC50(1)/IC50(3a–4d), HCT116: vs corresponding amine (R)-1 or (S)-1, 72 h
Excerpt: as §1, §3

Colo205 = assay: cells; details: for IC50: read-out: IC50 Colo205, exposure time 72 h, n = 3, 95% CI given; for activity factor IC50(1)/IC50(3a–4d), Colo205: vs corresponding amine (R)-1 or (S)-1, 72 h
Excerpt: as §1, §2, §3

HepG2 = assay: cells; details: for IC50: read-out: IC50 HepG2, exposure time 72 h, n = 3, 95% CI given; for activity factor IC50(1)/IC50(3a–4d), HepG2: vs corresponding amine (R)-1 or (S)-1, 72 h
Excerpt: as §1, §2, §3

MCF7 = assay: cells; details: for IC50: read-out: IC50 MCF7, exposure time 72 h, n = 3, 95% CI given; for activity factor IC50(1)/IC50(3a–4d), MCF7: vs corresponding amine (R)-1 or (S)-1, 72 h
Excerpt: as §1, §2, §3

SW620 = assay: Neutral red uptake antiproliferative assay, SW620; format: cell-based, human; details: for IC50: exposure time 72 h, n = 3, 95% CI given; for activity factor IC50(1)/IC50(3a–4d), SW620: vs corresponding amine (R)-1 or (S)-1, 72 h
Excerpt: as §1, §2, §3

SW620C = assay: Neutral red uptake antiproliferative assay, MDR line SW620C; format: cell-based, human; details: for IC50: exposure time 72 h, n = 3, ABCG2-overexpressing MDR line; for activity factor IC50(1)/IC50(3a–4d), SW620C: vs corresponding amine (R)-1 or (S)-1, 72 h
Excerpt: (§4) Next, we evaluated the cytotoxicity of the synthesized complexes toward the panel of six multidrug-resistant (MDR) cell lines derived from SW620 and characterized by the overexpression of various ABC proteins, namely, ABCG2 (SW620C and SW620Mito), ABCC1 (SW620M and SW620E), and ABCB1 (SW620D, SW620E, and SW620V) (Table 3, Figures S29 and S32). […] The activity of the complexes derived from the ligand (S)-2 is also considerably higher than that of the compounds containing the ligand (R)-2. The cytotoxicity of both rhodium 4c and iridium 4d complexes is higher than that of amine (S)-1. In the case of 4c, the increase in cytotoxicity is low, with the highest value of 3.7-fold for the SW620Mito line. […] Compound 4d also exerts a 2.1- and 2.6-fold higher cytotoxicity than […] against the SW620C and SW620D lines.
(§5) For this purpose, neutral red uptake assay was performed. […] The results were presented as a percentage of control.

SW620D = assay: Neutral red uptake antiproliferative assay, MDR line SW620D; format: cell-based, human; details: for IC50: exposure time 72 h, n = 3, ABCB1-overexpressing MDR line; for activity factor IC50(1)/IC50(3a–4d), SW620D: vs corresponding amine (R)-1 or (S)-1, 72 h
Excerpt: as §4, §5

SW620E = assay: Neutral red uptake antiproliferative assay, MDR line SW620E; format: cell-based, human; details: for IC50: exposure time 72 h, n = 3, ABCC1- and ABCB1-overexpressing MDR line; for activity factor IC50(1)/IC50(3a–4d), SW620E: vs corresponding amine (R)-1 or (S)-1, 72 h
Excerpt: as §4, §5

SW620M = assay: Neutral red uptake antiproliferative assay, MDR line SW620M; format: cell-based, human; details: for IC50: exposure time 72 h, n = 3, ABCC1-overexpressing MDR line; for activity factor IC50(1)/IC50(3a–4d), SW620M: vs corresponding amine (R)-1 or (S)-1, 72 h
Excerpt: as §4, §5

SW620V = assay: Neutral red uptake antiproliferative assay, MDR line SW620V; format: cell-based, human; details: for IC50: exposure time 72 h, n = 3, ABCB1-overexpressing MDR line; for activity factor IC50(1)/IC50(3a–4d), SW620V: vs corresponding amine (R)-1 or (S)-1, 72 h
Excerpt: as §4, §5

SW620Mito = assay: Neutral red uptake antiproliferative assay, MDR line SW620Mito; format: cell-based, human; details: for IC50: exposure time 72 h, n = 3, ABCG2-overexpressing MDR line; for activity factor IC50(1)/IC50(3a–4d), SW620Mito: vs corresponding amine (R)-1 or (S)-1, 72 h
Excerpt: as §4, §5

SW620 cells [1] = assay: Cell cycle distribution by flow cytometry, SW620; format: cell-based, human; details: concentration equal to IC75 of (S)-1 / (R)-1, mean ± SEM, n = 3; for Cell cycle fraction G1, 24 h / Cell cycle fraction G2/M, 24 h / Cell cycle fraction S, 24 h: SW620, 24 h; for Cell cycle fraction G1, 48 h / Cell cycle fraction G2/M, 48 h / Cell cycle fraction S, 48 h: SW620, 48 h
Procedure: Ispinesib leads to the formation of monopolar mitotic spindles and a blockade of chromosome segregation in cancer cells. Using flow cytometry, we assessed the cell cycle distribution in the SW620 and SW620E cells exposed to the studied compounds for 24 and 48 h. […] Both complexes, 3c and 3d, decrease the percentage of cells in the G1/G0 phase and increase the percentage in the S and G2/M phases. […] Furthermore, prolonged exposure to the compounds increases the percentage of cells in the G2/M phase, with the most intensive effect observed for 3c and 3d.
SW620 and SW620E cells lines (vulnerable and resistant variants, respectively) were seeded in 6-well plates at a density of 10^5 cells per well. […] After 24 h, the cells were trypsinized and fixed with ice-cold 70% v/v ethanol. The cells were stained with 75 μM propidium iodide with 50 Kunitz units of RNase A in PBS for 30 min at 37 °C. All samples were analyzed using a LSRII flow cytometer (Becton Dickinson) at a PE channel ([…]). Cell cycle phase distribution was determined using a built-in cell cycle module (Watson pragmatic algorithm) by FlowJo 7.6.1 software.

[2] = tested on: human cancer cell lines (A549, Colo205, HCT116, HepG2, MCF7, SW620); assay: Neutral red uptake antiproliferative assay, panel of human cancer cell lines; format: cell-based; details: cell line not stated
Excerpt: as §1
as §3, with “The dye was released using 100 μL of the solubilizer (1% acetic acid in 50% ethanol) on an orbital shaker (10 min).” left out

SW620 cells [3] = assay: ROS generation, dihydrorhodamine 123 oxidation assay; format: cell-based, human; details: SW620, 1 μM compound, 4 h, DHR123 with 10 μM verapamil; vs control or (R)- and (S)-1
Excerpt: Metal complexes often induce reactive oxygen species (ROS) generation in cells,[51] which may increase their cytotoxic activity compared to purely organic molecules. To study the impact of the synthesized compounds on ROS production, we have measured the ROS generation in SW620 cells by the dihydrorhodamine 123 (DHR123) oxidation assay (Figure 9). However, there is no correlation between the antiproliferative potential and the ability of a compound to generate ROS.
Dihydrorhodamine 123 oxidation was used as an indicator of intracellular ROS production. For this purpose, SW620 cells were seeded in 6-well plates at a density of 10^5 cells per well. The cells were left overnight (time needed for them to attach to the surface). Then, 1 μM tested compounds were added along with 1 μM DHR123. Additionally, since DHR123 is a substrate of ABCB1 (which may interfere in this assay), 10 μM verapamil, an inhibitor of this protein, was added. The cells were cultured for an additional 4 h at 37 °C, and then the cells were harvested by trypsinization, resuspended in a complete medium, and analyzed using a LSRII flow cytometer (Becton Dickinson) in a FITC channel (530/30 nm). The results are presented as a percentage of control (median fluorescence in the presence of DMSO).

[4] = compared with the amine of opposite configuration, (R)-1

Row | Structure (SMILES) | IC50 (A549) [nM] | activity factor IC50(1)/IC50(3a–4d), A549 (A549) | IC50 (HCT116) [nM] | activity factor IC50(1)/IC50(3a–4d), HCT116 (HCT116) | IC50 (Colo205) [nM] | activity factor IC50(1)/IC50(3a–4d), Colo205 (Colo205) | IC50 (HepG2) [nM] | activity factor IC50(1)/IC50(3a–4d), HepG2 (HepG2) | IC50 (MCF7) [nM] | activity factor IC50(1)/IC50(3a–4d), MCF7 (MCF7) | IC50 (SW620) [nM] | activity factor IC50(1)/IC50(3a–4d), SW620 (SW620) | IC50 (SW620C) [nM] | activity factor IC50(1)/IC50(3a–4d), SW620C (SW620C) | IC50 (SW620D) [nM] | activity factor IC50(1)/IC50(3a–4d), SW620D (SW620D) | IC50 (SW620E) [nM] | activity factor IC50(1)/IC50(3a–4d), SW620E (SW620E) | IC50 (SW620M) [nM] | activity factor IC50(1)/IC50(3a–4d), SW620M (SW620M) | other results
1 | CC(C)[C@H](N=Cc1ccccn1)c1nc2cc(Cl)ccc2c(=O)n1Cc1ccccc1.Cc1c(C)c(C)[c-](C)c1C.F[P-](F)(F)(F)(F)F.[Cl-].[Ir+3] [Compound 4d, [(Cp*)Ir((S)-2)Cl]PF6] | 764 | (9.23) | 222 | (36.31) | 216 | (28.1) | 218 | (11.01) | 216 | (18.10) | 139 | (20.65) | 343 | (9.71) | 425 | (9.76) | 663 | (6.11) | 387 | (8.94) | higher cytotoxicity than (R)-1, SW620C (SW620C; [4]): 2.1 fold; higher cytotoxicity than (R)-1, SW620D (SW620D; [4]): 2.6 fold; IC50 (SW620V): 411 nM; activity factor IC50(1)/IC50(3a–4d), SW620V (SW620V): (8.37); IC50 (SW620Mito): 365 nM; activity factor IC50(1)/IC50(3a–4d), SW620Mito (SW620Mito): (10.71); Cell cycle fraction G1, 24 h (SW620 cells [1]): 51.7 ± 1.2%; Cell cycle fraction G2/M, 24 h (SW620 cells [1]): 28.9 ± 0.4%; Cell cycle fraction S, 24 h (SW620 cells [1]): 14.3 ± 0.2%; Cell cycle fraction G1, 48 h (SW620 cells [1]): 44.1 ± 0.5%; Cell cycle fraction G2/M, 48 h (SW620 cells [1]): 40.6 ± 1.3%; Cell cycle fraction S, 48 h (SW620 cells [1]): 13.7 ± 0.4%; higher cytotoxicity compared to (R)-1 [2]: 1.6 fold; higher cytotoxicity compared to (S)-1 [2]: 2.6 fold
2 | CC(C)[C@H](N=Cc1ccccn1)c1nc2cc(Cl)ccc2c(=O)n1Cc1ccccc1.Cc1ccc(C(C)C)cc1.F[P-](F)(F)(F)(F)F.[Cl-].[Ru+2] [Compound 4a, [(cym)Ru((S)-2)Cl]PF6] | 3250 | (2.17) | 3760 | (2.14) | 939 | (6.46) | 1890 | (1.27) | 634 | (6.17) | 2910 | (0.986) | 4360 | (0.764) | 6010 | (0.690) | 5460 | (0.741) | 3240 | (1.07) | increased cytotoxicity vs corresponding amine 1, Colo205 (Colo205): approximately 6 fold; increased cytotoxicity vs corresponding amine 1, MCF7 (MCF7): approximately 6 fold; IC50 (SW620V): 5010 nM; activity factor IC50(1)/IC50(3a–4d), SW620V (SW620V): (0.687); IC50 (SW620Mito): 3680 nM; activity factor IC50(1)/IC50(3a–4d), SW620Mito (SW620Mito): (1.06); Cell cycle fraction G1, 24 h (SW620 cells [1]): 52.8 ± 1.2%; Cell cycle fraction G2/M, 24 h (SW620 cells [1]): 33.3 ± 1.0%; Cell cycle fraction S, 24 h (SW620 cells [1]): 13.5 ± 0.4%; Cell cycle fraction G1, 48 h (SW620 cells [1]): 46.8 ± 0.7%; Cell cycle fraction G2/M, 48 h (SW620 cells [1]): 39.1 ± 0.3%; Cell cycle fraction S, 48 h (SW620 cells [1]): 13.5 ± 0.8%; ROS generation (in words) (SW620 cells [3]): increase the level of ROS

Source: PMC11044151, “Development of Half-Sandwich Ru, Os, Rh, and Ir Complexes Bearing the Pyridine-2-ylmethanimine Bidentate Ligand Derived from 7-Chloroquinazolin-4(3H)-one with Enhanced Antiproliferative Activity” (ACS Omega, 2024)
